Reference: ChEMBL document CHEMBL3885861, “Open TG-GATES”

Species on record: Rattus norvegicus
Test: Open TG-GATES - Regimen: Daily Repeat
Type: toxicity, organism-based, Sprague-Dawley
Design: regimen Daily Repeat, gender Male, age 6 weeks
Details: in vivo, po, route gavage; for KIDNEY_L / KIDNEY_R / KIDNEY_TOTAL: tissue Kidney; for LIVER: tissue Liver; for ALP / ALT / AST / CRE / DBIL / IP / K / LDH / Na / PL / RALB / TBIL / TC / TG / TP / gamma-GTP / BUN: tissue Plasma
[1] = 0 mg/kg, 72 h, dose level Control, time 3 day
[2] = 0 mg/kg, 72 h, tissue Blood, dose level Control, time 3 day
[3] = 0 mg/kg, […], dose level Control, time 7 day
[4] = 0 mg/kg, […], dose level Control, time 14 day
[5] = 0 mg/kg, […], dose level Control, time 28 day
[6] = 0 mg/kg, […], tissue Blood, dose level Control, time 7 day
[7] = 0 mg/kg, […], tissue Blood, dose level Control, time 14 day
[8] = 0 mg/kg, […], tissue Blood, dose level Control, time 28 day
[9] = 40 mg/kg, 72 h, tissue Blood, dose level Low, time 3 day

Question: Which TERMINAL_BW [1] does the source give for `CCC(C)(C)C(=O)O[C@H]1C[C@@H](C)C=C2C=C[C@H](C)[C@H](CC[C@@H]3C[C@@H](O)CC(=O)O3)[C@H]21` [SIMVASTATIN] here?
Answer: 222.3 g

Question: And the Bas [2]?
Answer: 0%

Question: What about the Eos [2] of the same compound?
Answer: 1%

Question: What about the Fbg [2] of the same compound?
Answer: 227 mg/dL

Question: What about the Hb [2] of the same compound?
Answer: 13.3 g/dL

Question: And the Ht [2]?
Answer: 40%

Question: And the Lym [2]?
Answer: 78.8%

Question: What about the MCHC [2] of the same compound?
Answer: 33.1%

Question: And the Mono [2]?
Answer: 8.8%

Question: And the Neu [2]?
Answer: 11.8%

Question: What about the Plat [2] of the same compound?
Answer: 121.1 x10_4/uL

Question: What about the RBC [2] of the same compound?
Answer: 621.6 x10_4/ul

Question: What about the Ret [2] of the same compound?
Answer: 6.5%

Question: What about the WBC [2] of the same compound?
Answer: 98.2 x10_2/uL

Question: And the KIDNEY_L [1]?
Answer: 1 g

Question: What about the KIDNEY_R [1] of the same compound?
Answer: 1 g

Question: What about the KIDNEY_TOTAL [1] of the same compound?
Answer: 2 g

Question: What about the LIVER [1] of the same compound?
Answer: 11 g

Question: What about the ALP [1] of the same compound?
Answer: 820.2 IU/L

Question: What about the ALT [1] of the same compound?
Answer: 36.6 IU/L

Question: What about the AST [1] of the same compound?
Answer: 58.8 IU/L

Question: What about the CRE [1] of the same compound?
Answer: 0.6 mg/dL

Question: And the DBIL [1]?
Answer: 0.004 mg/dL

Question: What about the IP [1] of the same compound?
Answer: 7.8 mg/dL

Question: And the K [1]?
Answer: 4.6 meq/L

Question: And the LDH [1]?
Answer: 81 IU/L

Question: And the Na [1]?
Answer: 140.2 meq/L

Question: What about the PL [1] of the same compound?
Answer: 143.4 mg/dL

Question: What about the RALB [1] of the same compound?
Answer: 3.8 g/dL

Question: And the TBIL [1]?
Answer: 0.3 mg/dL

Question: And the TC [1]?
Answer: 82.2 mg/dL

Question: What about the TG [1] of the same compound?
Answer: 75.6 mg/dL

Question: What about the TP [1] of the same compound?
Answer: 5.6 g/dL

Question: What about the gamma-GTP [1] of the same compound?
Answer: 1.8 IU/L

Question: And the TERMINAL_BW [3]?
Answer: 253.4 g

Question: And the TERMINAL_BW [4]?
Answer: 301 g

Question: And the TERMINAL_BW [5]?
Answer: 380.8 g

Question: And the Bas [6]?
Answer: 0%

Question: And the Eos [6]?
Answer: 0.8%

Question: And the Fbg [6]?
Answer: 217.4 mg/dL

Question: And the Hb [6]?
Answer: 12.8 g/dL

Question: What about the Ht [6] of the same compound?
Answer: 38.8%

Question: And the Lym [6]?
Answer: 78.6%

Question: What about the MCHC [6] of the same compound?
Answer: 33%

Question: And the Mono [6]?
Answer: 8.8%

Question: And the Neu [6]?
Answer: 12%

Question: What about the PT [6] of the same compound?
Answer: 10.9 s

Question: What about the Plat [6] of the same compound?
Answer: 115.6 x10_4/uL

Question: What about the RBC [6] of the same compound?
Answer: 606.2 x10_4/ul

Question: What about the Ret [6] of the same compound?
Answer: 3.8%

Question: And the WBC [6]?
Answer: 108.7 x10_2/uL

Question: What about the Bas [7] of the same compound?
Answer: 0%

Question: And the Eos [7]?
Answer: 1%

Question: What about the Fbg [7] of the same compound?
Answer: 222.4 mg/dL

Question: What about the Hb [7] of the same compound?
Answer: 13.9 g/dL

Question: And the Ht [7]?
Answer: 41.7%

Question: What about the Lym [7] of the same compound?
Answer: 78.4%

Question: What about the MCHC [7] of the same compound?
Answer: 33.2%

Question: What about the Mono [7] of the same compound?
Answer: 7%

Question: And the Neu [7]?
Answer: 13.8%

Question: And the Plat [7]?
Answer: 123.4 x10_4/uL

Question: And the RBC [7]?
Answer: 674.8 x10_4/ul

Question: And the Ret [7]?
Answer: 6.2%

Question: What about the WBC [7] of the same compound?
Answer: 122.2 x10_2/uL

Question: And the Bas [8]?
Answer: 0%

Question: And the Eos [8]?
Answer: 1%

Question: What about the Fbg [8] of the same compound?
Answer: 227.8 mg/dL

Question: What about the Hb [8] of the same compound?
Answer: 14.5 g/dL

Question: What about the Ht [8] of the same compound?
Answer: 43.6%

Question: What about the Lym [8] of the same compound?
Answer: 85.6%

Question: What about the MCHC [8] of the same compound?
Answer: 33.3%

Question: And the MCV [8]?
Answer: 57.8 fL

Question: What about the Mono [8] of the same compound?
Answer: 4.8%

Question: What about the Neu [8] of the same compound?
Answer: 8.6%

Question: What about the PT [8] of the same compound?
Answer: 11.7 s

Question: And the Plat [8]?
Answer: 120.4 x10_4/uL

Question: What about the RBC [8] of the same compound?
Answer: 753.6 x10_4/ul

Question: What about the Ret [8] of the same compound?
Answer: 3%

Question: What about the WBC [8] of the same compound?
Answer: 132.7 x10_2/uL

Question: What about the KIDNEY_L [3] of the same compound?
Answer: 1.1 g

Question: And the KIDNEY_R [3]?
Answer: 1.1 g

Question: What about the KIDNEY_TOTAL [3] of the same compound?
Answer: 2.2 g

Question: What about the KIDNEY_L [4] of the same compound?
Answer: 1.2 g

Question: What about the KIDNEY_R [4] of the same compound?
Answer: 1.3 g

Question: And the KIDNEY_TOTAL [4]?
Answer: 2.5 g

Question: And the KIDNEY_L [5]?
Answer: 1.4 g

Question: What about the KIDNEY_R [5] of the same compound?
Answer: 1.4 g

Question: What about the KIDNEY_TOTAL [5] of the same compound?
Answer: 2.8 g

Question: And the LIVER [3]?
Answer: 12.2 g

Question: And the LIVER [4]?
Answer: 14 g

Question: What about the LIVER [5] of the same compound?
Answer: 15.9 g

Question: What about the ALP [3] of the same compound?
Answer: 953 IU/L

Question: And the ALT [3]?
Answer: 34.4 IU/L

Question: And the AST [3]?
Answer: 63.4 IU/L

Question: What about the CRE [3] of the same compound?
Answer: 0.7 mg/dL

Question: And the DBIL [3]?
Answer: 0.012 mg/dL

Question: What about the IP [3] of the same compound?
Answer: 7.1 mg/dL

Question: What about the K [3] of the same compound?
Answer: 4.7 meq/L

Question: And the LDH [3]?
Answer: 81.6 IU/L

Question: What about the Na [3] of the same compound?
Answer: 142.4 meq/L

Question: And the PL [3]?
Answer: 152.4 mg/dL

Question: And the RALB [3]?
Answer: 3.8 g/dL

Question: And the TBIL [3]?
Answer: 0.3 mg/dL

Question: And the TC [3]?
Answer: 78.6 mg/dL

Question: What about the TP [3] of the same compound?
Answer: 5.7 g/dL

Question: What about the gamma-GTP [3] of the same compound?
Answer: 1.2 IU/L

Question: And the ALP [4]?
Answer: 777.2 IU/L

Question: What about the ALT [4] of the same compound?
Answer: 34.6 IU/L

Question: What about the AST [4] of the same compound?
Answer: 64.2 IU/L

Question: What about the BUN [4] of the same compound?
Answer: 20.6 mg/dL

Question: What about the CRE [4] of the same compound?
Answer: 0.6 mg/dL

Question: And the DBIL [4]?
Answer: 0.016 mg/dL

Question: What about the IP [4] of the same compound?
Answer: 7 mg/dL

Question: And the K [4]?
Answer: 4.5 meq/L

Question: And the LDH [4]?
Answer: 74.6 IU/L

Question: And the Na [4]?
Answer: 140.6 meq/L

Question: What about the PL [4] of the same compound?
Answer: 154.4 mg/dL

Question: And the RALB [4]?
Answer: 3.8 g/dL

Question: What about the TBIL [4] of the same compound?
Answer: 0.3 mg/dL

Question: And the TC [4]?
Answer: 73.6 mg/dL

Question: What about the TG [4] of the same compound?
Answer: 115.8 mg/dL

Question: And the TP [4]?
Answer: 5.9 g/dL

Question: What about the gamma-GTP [4] of the same compound?
Answer: 1.4 IU/L

Question: What about the ALP [5] of the same compound?
Answer: 672 IU/L

Question: And the ALT [5]?
Answer: 31.8 IU/L

Question: What about the AST [5] of the same compound?
Answer: 57.6 IU/L

Question: What about the BUN [5] of the same compound?
Answer: 20 mg/dL

Question: What about the CRE [5] of the same compound?
Answer: 0.7 mg/dL

Question: What about the DBIL [5] of the same compound?
Answer: 0.016 mg/dL

Question: And the IP [5]?
Answer: 5.9 mg/dL

Question: What about the K [5] of the same compound?
Answer: 4.3 meq/L

Question: And the LDH [5]?
Answer: 76.6 IU/L

Question: What about the Na [5] of the same compound?
Answer: 142.6 meq/L

Question: What about the PL [5] of the same compound?
Answer: 147.8 mg/dL

Question: What about the RALB [5] of the same compound?
Answer: 3.9 g/dL

Question: What about the TBIL [5] of the same compound?
Answer: 0.3 mg/dL

Question: What about the TC [5] of the same compound?
Answer: 66 mg/dL

Question: And the TG [5]?
Answer: 151.4 mg/dL

Question: And the TP [5]?
Answer: 6.1 g/dL

Question: And the gamma-GTP [5]?
Answer: 1.6 IU/L

Question: What about the TERMINAL_BW (40 mg/kg, 72 h, dose level Low, time 3 day) of the same compound?
Answer: 221.3 g

Question: What about the Bas [9] of the same compound?
Answer: 0%

Question: And the Eos [9]?
Answer: 1%
